In experiment [1] the test system is human foreskin fibroblast cells (HFF). The experiment is described as follows: Soluble collagen I, III and VI in HFF conditioned media (direct coat ELISA). Format: cell-based. The note with it: for ECM protein levels in the media of HFF cells: 6 hour treatment, following 72 hours; for collagen I concentration in the media: ARP, HRP, SBP 12.5 μg/ml, LP 160 μg/ml, MP 250 μg/ml, untreated control 0.08 μg/ml; for collagen VI in the cell media: untreated control 0.03 ug/ml; for collagen VI levels: both 5 and 7 days; for increase in collagen VI, steady state: 72 hours (ARP response not statistically significant, p=0.08); for collagen III levels: untreated control 0.11 μg/ml. The protocol: Primary human foreskin fibroblast cells (HFF) were seeded into 96 well plates at a density of 1.2×10^4 cells/well and cultured overnight in 10% fetal bovine serum/Dulbecco's minimum essential media (10% FBS/DMEM) at 37° C. and 5% CO2. The cells were then starved overnight in serum free DMEM and triplicate wells treated for six hours with a range of doses of proteins with peroxidase activity; horse radish peroxidase (HRP; 0.2-50 ug/ml), Arthromyces ramosus peroxidase (ARP; 0.2-50 ug/ml), microperoxidase (MP; 8-500 ug/ml), soy bean peroxidase (SBP; 0.2-100 ug/ml) and lactoperoxidase (LP; 10-310 ug/ml) (all obtained from Sigma-Aldrich). At the end of the six hour treatment period, the media was aspirated and replaced with fresh serum free DMEM and the cells cultured for a further 72 hours. […] This assay measures the reduction of oxidized, blue nonfluorescent Alamar Blue reagent to a pink fluorescent dye in the cell medium, such that the higher the amount of reduction, the greater the cell number and/or activity (O'Brien Eur J Biochem 267 2000). Briefly, cells were bathed in a 10% Alamar Blue/phosphate-buffered saline (PBS) solution for 30-60 minutes and fluorescence measured at wavelengths of 485 nm excitation and 595 nm emission using a Wallac Victor Multilabel HTS counter. Relative fluorescent units (RFU) for each sample were normalized to control wells (DMEM only treated cells) and data expressed as mean±standard error of the mean (sem) for triplicate wells. Experiments were repeated at least three times with the combined data from all experiments shown.
The amount of soluble collagen types I, III, and VI in HFF conditioned media was measured by a direct coat ELISA method using standard curves constructed from purified human collagen I, III or VI (extracted from human placenta; col I, BD Biosciences; col III and VI, Rocklands Immunochemicals) and fibronectin (extracted from human plasma, Chemicon). Samples and standards (20 μl/well) were added to a 384 well spectraplate (Packard BioScience) and left at room temperature (RT) overnight. The spectraplate was then washed 6 times with PBS-tween 0.05% (PBS-T) and 2.5% bovine serum albumin (BSA)/PBS blocking solution added to each well and the plate incubated for 1 hour at RT. The plate was then washed 6 times with PBS-T and primary antibody (0.25 μg/ml rabbit-anti-human-collagen I polyclonal; 2 μg/ml rabbit-anti-human-collagen III polyclonal; 0.25 μg/ml rabbit-anti-human-collagen VI polyclonal; 0.2 μg/ml rabbit-anti-human-fibronectin polyclonal, all from Rockland Immunochemicals) in 5% non-fat dairy milk added to each well for four hours at RT. After washing (6×PBS-T), europium tagged anti-rabbit secondary antibody (0.5 μg/ml 1% BSA/PBS; Wallac Oy) was added for 1 hour at RT. After a final wash (6×PBS-T), enhancement solution was added for at least 10 minutes and fluorescence measured at excitation 340 nm and emission 615 nm using a Wallac Victor Multilabel HTS counter. The respective ECM concentration of each sample was determined from the standard curve (μg/ml) and normalized to control wells (DMEM only treated cells) with the mean±sem for triplicate wells calculated. Experiments were repeated at least three times with the combined data from all experiments shown.
(In general: An ELISA detects its analyte on a solid surface through an enzyme-linked reagent.)

For experiment [2], the system named is fibroblast cells isolated from an adult subject. As to the kind of experiment: Total protein incorporated into the extracellular matrix (silver stained gel). The class given is cell-based, human. The note with it: 10% FBS + 50 ug/ml ascorbic acid, 72 hours. The protocol:
To ensure the soluble ECM proteins stimulated by the proteins with peroxidase activity are incorporated into the extracellular matrix generated by human fibroblast cells, given that this is a key requirement for the regeneration of collagen-rich tissues like skin and other organs and tissues, total proteins were extracted from the cell matrix. In these experiments, six well culture plates were seeded with fibroblast cells isolated from an adult subject at a density of 1.5×10^5 cells/well and after one week of culture, cells were treated with proteins with peroxidase activity in media containing 10% FBS and with the addition of ascorbic acid (vitamin C) which is a well known cofactor important for the cross linking of collagen molecules to generate polymeric fibres. Wells were supplemented daily to provide a final concentration of 50 ug/ml ascorbic acid in the media. After 72 hours the cell media was removed, the wells washed with warm PBS and the cell matrix extracted.
The total protein content of the cell matrix was solubilised by the addition of 500 ul/well of RIPA buffer (25 mM Tris-HCl pH7.4; 150 mM NaCl; 1% Triton X-100; 0.5% Na deoxycholate; 0.05% SDS). The cell matrix was scraped off the bottom of each well and the plates placed on a shaking platform for 10 minutes. The extracts were transferred to eppendorf tubes, vortexed vigorously and centrifuged at 12,000 rpm, 4° C. for 5 minutes. The DNA pellet was visualised and gently removed and the samples stored at −80° C. until assessment.
Total cell extracts were assessed by polyacrylamide gel electrophoresis. Samples were prepared by adding an appropriate amount of reduced loading buffer to neat cell extracts and boiling for 5 minutes. Samples were then loaded onto a 4-12% BisTris gradient gel (Invitrogen) together with molecular weight markers (Magic Mark XP and SeeBlue prestained markers; Invitrogen) and resolved for […] at 150V in a Novex mini-cell system (Invitrogen) using NuPage MES SDS running buffer. […]

The mark [3] stands for this setting: doses between 6.25 and 50 μg/ml.

Turning to Arthromyces ramosus peroxidase [ARP], the “increase in collagen I compared to controls” value in experiment [1] (0.4 μg/ml, 72 hours) is recorded as 1.4 fold; in experiment [1] (25 μg/ml, 72 hours), 5.8 fold. For the same molecule, the “decrease in collagen III compared to control levels” value in experiment [1] (25 and 50 μg/ml, 72 hours) came to 50%. In experiment [1], the “ECM protein levels in the media of HFF cells” value (shortened to “ECM protein levels”) is given as “increased ECM protein levels dose dependently”. The “collagen I concentration in the media” value in experiment [1] (5 days) and in experiment [1] (7 days) was 0.6 µg/mL throughout. Also, the “collagen VI in the cell media” value in experiment [1] (7 days) is 0.11 µg/mL. For the same molecule, in experiment [1] (any dose used, 72 hours), the “increase in collagen III” value is recorded as “did not induce a significant increase”. In experiment [1], the “collagen VI levels” value is “increased the collagen VI levels”. Further, the “increase in collagen VI, steady state” value in experiment [1] (setting [3]) was 2 fold.

Consider lactoperoxidase [LP], for which, in experiment [2], the “proteinaceous material in the extracellular matrix versus untreated control cells” value is recorded as “produced much more proteinaceous material”. In addition, the “increase in collagen I compared to controls” value in experiment [1] (80 μg/ml, 6 h treatment, 72 hours) turned out to be 4 fold. The “increase in collagen I compared to controls” value in experiment [1] (310 μg/ml, 72 hours) is 8 fold. Also, the “increase in collagen VI levels” value in experiment [1] (160 and 310 μg/ml, 72 hours) stood at 2 fold. In experiment [1], the “ECM protein levels” value is given as “increased ECM protein levels dose dependently” and the “collagen VI levels” value was “increased the collagen VI levels”. Further, in experiment [1] (5 days), the “collagen I concentration in the media” value was determined as 1.1 µg/mL and the “collagen III levels” value is 0.18 µg/mL. For the same molecule, in experiment [1] (7 days), the “collagen VI in the cell media” value was 0.07 µg/mL. Also, the “changes in collagen III levels (non-significant)” value in experiment [1] (doses from 10-310 μg/ml, 72 hours) is given as 1.5-1.7 fold.

For the molecule microperoxidase [MP], the “proteinaceous material in the extracellular matrix versus untreated control cells” value in experiment [2] was “produced much more proteinaceous material”. Also, the “ECM protein levels” value in experiment [1] is recorded as “increased ECM protein levels dose dependently”. The “collagen I concentration in the media” value in experiment [1] (5 days) stood at 0.17 µg/mL. The “increase in collagen VI” value in experiment [1] (any dose used, 72 hours) is “did not induce a significant increase”.

Consider soy bean peroxidase [SBP], for which the “proteinaceous material in the extracellular matrix versus untreated control cells” value in experiment [2] is reported as “produced much more proteinaceous material”. In experiment [1] (0.4 μg/ml, 72 hours), the “increase in collagen I compared to controls” value is reported as 1.6 fold and the “increase in collagen VI” value is listed as 1.2 fold. Also, the “increase in collagen VI” value in experiment [1] (50 μg/ml, 72 hours) came to 5.4 fold. In experiment [1] (25 and 50 μg/ml, 72 hours), the “increase in collagen I compared to controls” value is recorded as 10.5 fold. In experiment [1], the “ECM protein levels” value is listed as “increased ECM protein levels dose dependently” and the “collagen VI levels” value is given as “increased the collagen VI levels”. In addition, the “collagen III levels” value in experiment [1] (5 days) was found to be 0.15 µg/mL. Further, in experiment [1] (7 days), the “collagen VI in the cell media” value came out at 0.09 µg/mL. Also, the “increase in collagen III, steady state” value in experiment [1] (between 12.5 and 50 μg/ml, 72 hours) is 2.1-2.3 fold.

B1: horse radish peroxidase (protein, UniProt P00433 31-338, looked up)
Peroxidase C1A: QLTPTFYDNSCPNVSNIVRDTIVNELRSDPRIAASILRLHFHDCFVNGCDASILLDNTTSFRTEKDAFGNANSARGFPVIDRMKAAVESACPRTVSCADLLTIAAQQSVTLAGGPSWRVPLGRRDSLQAFLDLANANLPAPFFTLPQLKDSFRNVGLNRSSDLVALSGGHTFGKNQCRFIMDRLYNFSNTGLPDPTLNTTYLQTLRGLCPLNGNLSALVDFDLRTPTIFDNKYYVNLEEQKGLIQSDQELFSSPNATDTIPLVRSFANSTQTFFNAFVEAMDRMGNITPLTGTQGQIRLNCRVVNSNS
Take B1: the “increase in collagen I compared to controls” value in experiment [1] (0.2 μg/ml, 72 hours) is 1.5 fold; in experiment [1] (50 μg/ml, 72 hours) it was 10 fold. Besides, the “increase in collagen VI compared to controls” value in experiment [1] (1.56 μg/ml, 72 hours) was determined as 2 fold. Besides, the “increase in collagen III compared to controls” value stood at 3 fold in experiment [1] (3.12 μg/ml, 72 hours); 4 fold in experiment [1] (25 and 50 μg/ml, 72 hours). In experiment [1], the “ECM protein levels” value is listed as “increased ECM protein levels dose dependently”. Also, the “collagen III levels” value in experiment [1] (5 days) turned out to be 0.22 µg/mL. Also, in experiment [1] (7 days, 12.5 μg/ml, untreated control 0.06 μg/ml), the “collagen III level” value came to 0.3 µg/mL. In addition, the “collagen VI in the cell media” value in experiment [1] (7 days) is 0.13 µg/mL. In experiment [1], the “collagen VI levels” value is reported as “increased the collagen VI levels”. Moreover, in experiment [1] (doses between 6.25 and 50 μg/ml, 72 hours), the “increase in collagen I, steady state response” value was 9-10 fold. Moreover, the “increase in collagen VI, steady state” value in experiment [1] (setting [3]) was 3-3.5 fold.

Source of the values: patent US20100239556A1, “PROMOTING ECM PRODUCTION BY FIBROBLAST CELLS AND/OR PROMOTING MIGRATION OF FIBROBLAST CELLS IN A BIOLOGICAL SYSTEM” (TGR BioScience Pty Ltd., priority 2006, published 2010).
